# Test results reported in patent US20250051363A1, “Substituted Pyrazolopyridines” (Neuro3 Therapeutics, Inc., priority 2023, published 2025).
# Molecular target: LRRK2 wild-type (Homo sapiens (Human), UniProt Q5S007)
# Experiment: LanthaScreen LRRK2 Biochemical Activity Assay
# Conditions: human recombinant LRRK2 (amino acids 970-2527) wild-type, ATP 57 μM, TR-FRET; read-out: IC50 (nM), inhibition of LRRK2 wild-type kinase activity
# Method: The ability of a compound of Formula (I) to inhibit LRRK2 kinase activity is measured using a LanthaScreen™ kinase activity assay. In general, in a LanthaScreen™ kinase activity assay, kinase, fluorescein-labeled substrate, and ATP are allowed to react. Then EDTA (to stop the reaction) and terbium-labeled antibody (to detect phosphorylated product) are added. In a LanthaScreen™ kinase reaction, the antibody associates with the phosphorylated fluorescein labeled substrate resulting in an increased TR-FRET value. The TR-FRET value is a dimensionless number that is calculated as the ratio of the acceptor (fluorescein) signal to the donor (terbium) signal. The amount of antibody that is bound to the tracer is directly proportional to the amount of phosphorylated substrate present, and in this manner, kinase activity can be detected and measured by an increase in the TR-FRET value. Accordingly, in this Example, enzyme reactions are carried out in a kinase reaction buffer in the presence or absence of representative compounds of Formula (I) at various concentrations in 384-well plate at room temperature for 60 minutes. The kinase reaction buffer contains human recombinant LRRK2 protein (amino acids 970-2527, 5 nM), ATP (57 μM for LRRK2 wild-type, 134 μM for G2019S mutant protein), Fluorescein-LRRKtide substrate (0.4 mM), 50 mM Tris pH 7.5, 10 mM MgCl2, 1 mM EGTA, 0.01% Brij™-35, and 2 mM DTT. The final reaction volume for each reaction is 10 μL. The reactions are initated by adding the substrate and stopped by the addition of 10 μL of a TR-FRET dilution buffer supplemented with a kinase quench buffer (10 mM EDTA final) and Tb-anti-pLRRKtide (2 nM final). The plate is further incubated at room temperature for another 60 minutes, and the fluorescent signals are read on an EnVision® multilabel plate reader (PerkinElmer, Waltham, MA) with excitation at 340 nm and emission at 495 and 520 nm. The assay signal is determined as a ratio of FRET-specific signal measured with emission filter at 520 nm to that of the signal measured with Tb-specific emission filter at 495 nm. IC50 values for compound-mediated enzyme inhibition are calculated using appropriate programs in GraphPad Prism software by plotting the logarithm of the compound concentrations versus percent inhibition. All reagents are purchased from Thermo Fisher Scientific.
# Sequence of LRRK2 wild-type (Q5S007 970-2527): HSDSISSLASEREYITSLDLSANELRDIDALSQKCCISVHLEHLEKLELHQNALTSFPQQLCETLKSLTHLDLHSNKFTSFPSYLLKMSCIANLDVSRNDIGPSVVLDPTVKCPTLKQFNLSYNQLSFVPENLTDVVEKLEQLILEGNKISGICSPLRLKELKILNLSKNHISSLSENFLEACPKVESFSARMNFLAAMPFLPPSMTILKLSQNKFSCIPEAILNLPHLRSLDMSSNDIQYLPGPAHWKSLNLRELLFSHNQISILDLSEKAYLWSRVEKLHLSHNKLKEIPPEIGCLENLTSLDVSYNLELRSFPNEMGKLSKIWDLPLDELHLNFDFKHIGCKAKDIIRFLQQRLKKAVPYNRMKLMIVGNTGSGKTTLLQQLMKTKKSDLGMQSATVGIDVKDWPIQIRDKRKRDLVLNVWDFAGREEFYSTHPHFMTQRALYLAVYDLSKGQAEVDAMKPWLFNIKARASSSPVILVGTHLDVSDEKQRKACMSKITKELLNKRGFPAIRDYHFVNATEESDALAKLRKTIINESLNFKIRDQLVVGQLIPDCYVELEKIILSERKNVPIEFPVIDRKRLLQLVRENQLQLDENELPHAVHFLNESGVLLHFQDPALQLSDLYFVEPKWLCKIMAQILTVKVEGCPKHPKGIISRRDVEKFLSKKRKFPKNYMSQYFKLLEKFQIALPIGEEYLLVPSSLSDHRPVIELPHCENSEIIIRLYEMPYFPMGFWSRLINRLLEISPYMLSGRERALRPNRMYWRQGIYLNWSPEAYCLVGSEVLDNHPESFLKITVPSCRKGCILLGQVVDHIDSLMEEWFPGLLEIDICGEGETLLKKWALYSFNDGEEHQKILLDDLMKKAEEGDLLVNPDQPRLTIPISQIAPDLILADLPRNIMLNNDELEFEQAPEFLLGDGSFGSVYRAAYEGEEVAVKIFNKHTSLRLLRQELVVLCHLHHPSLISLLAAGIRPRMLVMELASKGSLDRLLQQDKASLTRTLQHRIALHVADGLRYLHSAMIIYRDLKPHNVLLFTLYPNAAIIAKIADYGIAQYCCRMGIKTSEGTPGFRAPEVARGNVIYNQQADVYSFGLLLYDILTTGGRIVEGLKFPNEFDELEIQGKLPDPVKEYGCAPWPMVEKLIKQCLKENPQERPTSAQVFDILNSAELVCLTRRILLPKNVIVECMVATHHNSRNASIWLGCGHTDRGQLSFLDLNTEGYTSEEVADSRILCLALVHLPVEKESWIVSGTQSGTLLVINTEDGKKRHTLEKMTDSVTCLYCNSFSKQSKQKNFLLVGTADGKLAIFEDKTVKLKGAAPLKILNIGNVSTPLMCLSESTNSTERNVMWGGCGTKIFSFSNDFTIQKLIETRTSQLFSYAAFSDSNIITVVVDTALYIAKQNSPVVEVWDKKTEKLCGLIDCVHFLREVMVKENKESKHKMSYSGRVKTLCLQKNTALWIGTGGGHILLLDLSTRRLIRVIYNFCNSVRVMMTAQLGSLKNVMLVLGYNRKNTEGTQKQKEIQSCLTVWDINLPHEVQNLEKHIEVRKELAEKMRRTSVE
row,Compound,IC50
1,"Clc1ccn2ncc(-c3cccc([C@@H]4CCCNC4)n3)c2c1 (single isomer, unassigned) [Example 6, (+)-5-chloro-3-(6-(piperidin-3-yl)pyridin-2-yl)pyrazolo[1,5-a]pyridine]",101 to 400 nM
2,"c1cc(-c2cnn3ccccc23)nc(C2CCNCC2)c1 [Example 1, 3-[6-(4-piperidyl)-2-pyridyl]pyrazolo[1,5-a]pyridine]",101 to 400 nM
3,"CN1CCC(c2cccc(-c3cnn4ccccc34)n2)CC1 [Example 2, 3-[6-(1-methyl-4-piperidyl)-2-pyridyl]pyrazolo[1,5-a]pyridine]",101 to 400 nM
4,"c1cc(-c2cnn3ccccc23)nc(C2CCNC2)c1 (centres unmarked) [Example 3, 3-(6-pyrrolidin-3-yl-2-pyridyl)pyrazolo[1,5-a]pyridine]",101 to 400 nM
5,"Oc1ccn2ncc(-c3cccc(C4CCCNC4)n3)c2c1 (centres unmarked) [Example 12, 3-(6-(piperidin-3-yl)pyridin-2-yl)pyrazolo[1,5-a]pyridin-5-ol]",101 to 400 nM
6,"c1cc(-c2cnn3ccc(OCC4CC4)cc23)nc(C2CCCNC2)c1 (centres unmarked) [Example 14, 5-(cyclopropylmethoxy)-3-[6-(3-piperidyl)-2-pyridyl]pyrazolo[1,5-a]pyridine]",101 to 400 nM
7,"c1cc(-c2cnn3ccc(OCC4COC4)cc23)nc(C2CCCNC2)c1 (centres unmarked) [Example 15, 5-(oxetan-3-ylmethoxy)-3-[6-(3-piperidyl)-2-pyridyl]pyrazolo[1,5-a]pyridine]",101 to 400 nM
8,"c1cc(-c2cnn3ccc(N4CCOCC4)cc23)nc(C2CCCNC2)c1 (centres unmarked) [Example 16, 4-[3-[6-(3-piperidyl)-2-pyridyl]pyrazolo[1,5-a]pyridin-5-yl]morpholine]",101 to 400 nM
9,"Nc1ccn2ncc(-c3cccc(C4CCCNC4)n3)c2c1 (centres unmarked) [Example 19, 3-[6-(3-piperidyl)-2-pyridyl]pyrazolo[1,5-a]pyridin-5-amine]",101 to 400 nM
10,"CS(=O)(=O)NCCC(=O)Nc1ccn2ncc(-c3cccc(C4CCCNC4)n3)c2c1 (centres unmarked) [Example 22, 3-(methylsulfonamido)-N-(3-(6-(piperidin-3-yl)pyridin-2-yl)pyrazolo[1,5-a]pyridin-5-yl)propanamide]",11 to 100 nM
11,"CS(=O)(=O)NCCC(=O)Nc1ccc2c(-c3cccc(C4CCCNC4)n3)cnn2c1 (centres unmarked) [Example 23, 3-(methanesulfonamido)-N-[3-[6-(3-piperidyl)-2-pyridyl]pyrazolo[1,5-a]pyridin-6-yl]propanamide]",101 to 400 nM
12,"CS(=O)(=O)NCCNC(=O)c1ccc2c(-c3cccc(C4CCCNC4)n3)cnn2c1 (centres unmarked) [Example 24, N-[2-(methanesulfonamido)ethyl]-3-[6-(3-piperidyl)-2-pyridyl]pyrazolo[1,5-a]pyridine-6-carboxamide]",101 to 400 nM
13,"CS(=O)(=O)NCC(=O)N1CCCC(c2cccc(-c3cnn4ccccc34)n2)C1 (centres unmarked) [Example 25, N-[2-oxo-2-[3-(6-pyrazolo[1,5-a]pyridin-3-yl-2-pyridyl)-1-piperidyl]ethyl]methanesulfonamide]",101 to 400 nM
14,"CS(=O)(=O)N1CCCC(c2cccc(-c3cnn4ccccc34)n2)C1 (centres unmarked) [Example 26, 3-[6-(1-methylsulfonyl-3-piperidyl)-2-pyridyl]pyrazolo[1,5-a]pyridine]",101 to 400 nM
15,"COc1cc(-c2cnn3ccccc23)nc(C2CCCNC2)c1 (centres unmarked) [Example 27, 3-(4-methoxy-6-(piperidin-3-yl)pyridin-2-yl)pyrazolo[1,5-a]pyridine]",101 to 400 nM
16,"Clc1cc(-c2cnn3ccccc23)nc(C2CCCNC2)c1 (centres unmarked) [Example 28, 3-(4-chloro-6-(piperidin-3-yl)pyridin-2-yl)pyrazolo[1,5-a]pyridine]",11 to 100 nM
17,"Clc1ccc(-c2cnn3ccccc23)nc1C1CCCNC1 (centres unmarked) [Example 29, 3-[5-chloro-6-(3-piperidyl)-2-pyridyl]pyrazolo[1,5-a]pyridine]",11 to 100 nM
18,"Clc1ccc(C2CCCNC2)nc1-c1cnn2ccccc12 (centres unmarked) [Example 30, 3-(3-chloro-6-(piperidin-3-yl)pyridin-2-yl)pyrazolo[1,5-a]pyridine]",101 to 400 nM
19,"Fc1cc(-c2cnn3ccccc23)nc(C2CCCNC2)c1 (centres unmarked) [Example 31, 3-[4-fluoro-6-(3-piperidyl)-2-pyridyl]pyrazolo[1,5-a]pyridine]",101 to 400 nM
20,"Fc1ccc(C2CCCNC2)nc1-c1cnn2ccccc12 (centres unmarked) [Example 32, 3-[3-fluoro-6-(3-piperidyl)-2-pyridyl]pyrazolo[1,5-a]pyridine]",11 to 100 nM
21,"Fc1ccc(-c2cnn3ccccc23)nc1C1CCCNC1 (centres unmarked) [Example 33, 3-[5-fluoro-6-(3-piperidyl)-2-pyridyl]pyrazolo[1,5-a]pyridine]",101 to 400 nM
22,"Clc1cc(-c2cnn3ccc(Cl)cc23)nc(C2CCCNC2)c1 (centres unmarked) [Example 34, 5-chloro-3-[4-chloro-6-(3-piperidyl)-2-pyridyl]pyrazolo[1,5-a]pyridine]",11 to 100 nM
23,Fc1cc(-c2cnn3ccc(Cl)cc23)nc(C2CCCNC2)c1 (centres unmarked) [Example 35],11 to 100 nM

# The next lines start with the values.
row,IC50,Compound
1,11 to 100 nM,"Clc1ccn2ncc(-c3cccc(C4CCCNC4)n3)c2c1 (racemic) [Example 5, Rac-5-chloro-3-[6-(3-piperidyl)-2-pyridyl]pyrazolo[1,5-a]pyridine]"
2,≤ 10 nM,"Clc1ccn2ncc(-c3cccc([C@H]4CCCNC4)n3)c2c1 (single isomer, unassigned) [Example 7, (−)-5-chloro-3-(6-(piperidin-3-yl)pyridin-2-yl)pyrazolo[1,5-a]pyridine]"
3,11 to 100 nM,"Clc1ccn2ncc(-c3cccc(C4CCNC4)n3)c2c1 (centres unmarked) [Example 4, 5-chloro-3-(6-(pyrrolidin-3-yl)pyridin-2-yl)pyrazolo[1,5-a]pyridine]"
4,11 to 100 nM,"Brc1ccn2ncc(-c3cccc(C4CCCNC4)n3)c2c1 (centres unmarked) [Example 8, 5-bromo-3-[6-(3-piperidyl)-2-pyridyl]pyrazolo[1,5-a]pyridine]"
5,11 to 100 nM,"Cc1ccn2ncc(-c3cccc(C4CCCNC4)n3)c2c1 (centres unmarked) [Example 9, 5-methyl-3-[6-(3-piperidyl)-2-pyridyl]pyrazolo[1,5-a]pyridine]"
6,11 to 100 nM,"FC(F)(F)c1ccn2ncc(-c3cccc(C4CCCNC4)n3)c2c1 (centres unmarked) [Example 10, 3-[6-(3-piperidyl)-2-pyridyl]-5-(trifluoromethyl)pyrazolo[1,5-a]pyridine]"
7,11 to 100 nM,"COc1ccn2ncc(-c3cccc(C4CCCNC4)n3)c2c1 (centres unmarked) [Example 11, 5-methoxy-3-[6-(3-piperidyl)-2-pyridyl]pyrazolo[1,5-a]pyridine]"
8,11 to 100 nM,"CC(C)Oc1ccn2ncc(-c3cccc(C4CCCNC4)n3)c2c1 (centres unmarked) [Example 13, 5-isopropoxy-3-[6-(3-piperidyl)-2-pyridyl]pyrazolo[1,5-a]pyridine]"
9,11 to 100 nM,"N#Cc1ccn2ncc(-c3cccc(C4CCCNC4)n3)c2c1 (centres unmarked) [Example 17, 3-[6-(3-piperidyl)-2-pyridyl]pyrazolo[1,5-a]pyridine-5-carbonitrile]"
10,11 to 100 nM,"c1cc(-c2cnn3ccc(C4CC4)cc23)nc(C2CCCNC2)c1 (centres unmarked) [Example 18, 5-cyclopropyl-3-[6-(3-piperidyl)-2-pyridyl]pyrazolo[1,5-a]pyridine]"
11,≤ 10 nM,"CNc1ccn2ncc(-c3cccc(C4CCCNC4)n3)c2c1 (centres unmarked) [Example 20, N-methyl-3-[6-(3-piperidyl)-2-pyridyl]pyrazolo[1,5-a]pyridin-5-amine]"
12,11 to 100 nM,"CCNc1ccn2ncc(-c3cccc(C4CCCNC4)n3)c2c1 (centres unmarked) [Example 21, N-ethyl-3-[6-(3-piperidyl)-2-pyridyl]pyrazolo[1,5-a]pyridin-5-amine]"
